Reference: patent US9549912B2, “Methods for treating atrial fibrillation” (Armetheon, Inc., priority 2009, dated 2017)
Like-named read-outs stand apart in the source and are kept apart here.

How the values were obtained:
[1] = Electrophysiological activity in animals: atrial refractoriness, metabolite activity; assay type: in vivo; conditions: in vivo
P-glycoprotein (P-gp) = P-glycoprotein (P-gp) (Homo sapiens, UniProt P08183); conditions: cited from earlier work
[2] = cited from earlier work
AF patients = conditions: followed for a year, versus placebo; cited from earlier work
[3] = 2 years; 8 for the placebo; cited from earlier work
[4] = Phase 2 clinical trial of tecarfarin: time in therapeutic INR range versus warfarin; assay type: in vivo, human; conditions: for proportion of time with INR below 1.5 / proportion of time with INR between 1.5 and 1.9: human, in vivo; for time in therapeutic range (TTR), INR between 2.0 and 3.0: same patient population, previously on warfarin
patients with AF = conditions: cited from earlier work

Sequence of P-glycoprotein (P-gp) (P08183 whole entry): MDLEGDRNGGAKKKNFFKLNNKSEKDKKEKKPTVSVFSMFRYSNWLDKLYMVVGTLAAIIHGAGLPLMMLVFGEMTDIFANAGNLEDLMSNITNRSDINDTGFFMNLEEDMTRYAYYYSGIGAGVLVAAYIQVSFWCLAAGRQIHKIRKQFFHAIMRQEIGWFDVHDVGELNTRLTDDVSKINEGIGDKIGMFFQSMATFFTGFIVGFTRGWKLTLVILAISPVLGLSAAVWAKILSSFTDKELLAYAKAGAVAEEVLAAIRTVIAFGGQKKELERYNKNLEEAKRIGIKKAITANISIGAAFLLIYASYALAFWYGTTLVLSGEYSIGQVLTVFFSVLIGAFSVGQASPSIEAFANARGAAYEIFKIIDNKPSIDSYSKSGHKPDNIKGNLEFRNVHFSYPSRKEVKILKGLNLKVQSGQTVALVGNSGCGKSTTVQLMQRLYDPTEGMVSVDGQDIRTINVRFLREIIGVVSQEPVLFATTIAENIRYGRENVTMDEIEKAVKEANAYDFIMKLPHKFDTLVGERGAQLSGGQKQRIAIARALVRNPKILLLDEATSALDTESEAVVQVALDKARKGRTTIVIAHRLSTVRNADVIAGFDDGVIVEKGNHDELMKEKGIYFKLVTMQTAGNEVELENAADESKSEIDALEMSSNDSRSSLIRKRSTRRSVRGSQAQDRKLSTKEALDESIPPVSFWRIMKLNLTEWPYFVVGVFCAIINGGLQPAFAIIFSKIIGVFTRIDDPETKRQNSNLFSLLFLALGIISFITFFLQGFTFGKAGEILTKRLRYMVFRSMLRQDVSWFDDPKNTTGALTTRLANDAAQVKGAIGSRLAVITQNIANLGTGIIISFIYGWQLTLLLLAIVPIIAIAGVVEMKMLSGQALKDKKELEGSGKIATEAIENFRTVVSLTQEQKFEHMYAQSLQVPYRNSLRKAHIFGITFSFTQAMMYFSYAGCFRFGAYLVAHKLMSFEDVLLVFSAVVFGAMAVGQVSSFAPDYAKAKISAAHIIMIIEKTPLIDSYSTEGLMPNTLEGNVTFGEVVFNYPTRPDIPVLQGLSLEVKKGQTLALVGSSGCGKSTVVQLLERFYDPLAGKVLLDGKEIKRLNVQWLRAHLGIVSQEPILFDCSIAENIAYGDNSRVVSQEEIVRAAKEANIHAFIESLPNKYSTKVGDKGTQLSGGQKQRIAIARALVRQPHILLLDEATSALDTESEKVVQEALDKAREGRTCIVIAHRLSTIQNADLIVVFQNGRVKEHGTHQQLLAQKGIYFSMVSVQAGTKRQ

CCN(CC)CCOc1c(I)cc(C(=O)c2c(CC(=O)O)oc3ccccc23)cc1I [ATI-2000]
electrophysiological activity [1]: electrophysiologically inactive

[H]/N=C(/N)c1ccc(NCc2nc3cc(C(=O)N(CCC(=O)O)c4ccccn4)ccc3n2C)cc1 [dabigatran]
P-gp substrate status (P-glycoprotein (P-gp)): substrate | major bleeding versus warfarin ([2]; 110 mg): superior | major bleeding versus warfarin ([2]; 150 mg): noninferior

CCCCc1oc2ccc(NS(C)(=O)=O)cc2c1C(=O)c1ccc(OCCCN(CCCC)CCCC)cc1 [dronedarone]
time to first recurrence of AF (TTFR) (AF patients): significant increase in TTFR compared to placebo | number of strokes in patients with only AF or atrial flutter on all ECGs [3]: 2

C=C[C@H]1C[N@@]2CC[C@H]1C[C@@H]2[C@@H](O)c1ccnc2ccc(OC)cc12 [quinidine]
P-gp inhibition (P-glycoprotein (P-gp)): particularly potent P-gp inhibitor

CC(OC(=O)c1ccc(Cc2c(O)c3ccccc3oc2=O)cc1)(C(F)(F)F)C(F)(F)F [tecarfarin]
proportion of time with INR below 1.5 [4]: 1.2% | proportion of time with INR between 1.5 and 1.9 [4]: 14.2% | time in therapeutic range (TTR), INR between 2.0 and 3.0 [4]: 71.5%

CC(=O)CC(c1ccccc1)c1c(O)c2ccccc2oc1=O (centres unmarked) [warfarin]
strokes prevented (patients with AF): 64% | proportion of time with INR below 1.5 [4]: 3.9% | proportion of time with INR between 1.5 and 1.9 [4]: 22.4% | time in therapeutic range (TTR), INR between 2.0 and 3.0 [4]: 59.3%
